Results as given in patent publication EP0260127A2, “Xanthine derivatives, their preparation and pharmaceutical compositions containing them” (BEECHAM - WUELFING GmbH & Co. KG, priority 1986, dated 1988).
Marks after values point to notes of the source that are not given here.

Tests used:
Mongolian gerbils = test: Gerbil ischaemic deficit passive avoidance test (recall latency following transient forebrain ischaemia); type: in vivo; settings: 3mg/kg p.o., seven administrations; gerbils after 5min bilateral carotid artery ligation; ischaemic controls 14, sham-ligated controls 33
Protocol: 2. The Gerbil Ischaemic Deficit Passive Avoidance Test.
Mongolian gerbils were conditioned to avoid entering a dark compartment by means of a footshock (maximally 50V, 2s duration) received when entering from the light section of a two compartment box. Recollection of the footshock was examined 24h later by replacing the gerbils in the two compartment box and measuring the recall latency, the time taken to re-enter the dark compartment.
Effect of test compound on recall latency in the gerbil following transient forebrain ischaemia.
A learning or memory deficit was induced in the gerbils by a transient (5min) bilateral carotid artery ligation, performed 24h prior to conditioning, under light hexobarbital anaesthesia.
Compounds, being examined for an effect on learning or memory in gerbils which had undergone carotid occlusion, were administered seven times during the experiment. The initial administration was during the period of forebrain ischaemia, the third and seventh administrations were 10min prior to conditioning and recall testing, respectively, and the remainder were given at intermediate time points.
A long recall latency indicates good information acquisition or retrival.

[1] = test system: rat ischaemic gastrocnemius muscle; test: Effect on oxygen tension (pO2) of rat ischaemic gastrocnemius muscle; type: in vivo; settings: ischaemic hindlimb, femoral artery ligated 2-4 days previously
[2] = molecular target: cyclic AMP phosphodiesterase; test: Inhibition of cyclic AMP phosphodiesterase (Dixon plot); type: biochemical; settings: homogenates of rat skeletal muscle; 0.31 µM cyclic AMP as substrate; estimated from Dixon plot; read-out: Apparent Ki value
Protocol: 4. Inhibition of cyclic AMP phosphodiesterase.
The activity of cyclic AMP phosphodiesterase in homogenates of rat skeletal muscle was measured in the presence of various concentrations of compounds of formula (I) using 0.31 µM cyclic AMP as substrate. The reciprocal of the reaction rate was plotted on the y axis against the concentration of each compound on the x axis (Dixon plot). The apparent Ki value was estimated by extrapolating the steeper linear portion of the Dixon plot to the x axis and obtaining the negative intercept on the x axis.

## CCCCn1c(=O)n(CCC(C)O)c(=O)c2c1ncn2CC(C)O (centres unmarked) [Example E5, 1-(3-Hydroxybutyl)-3-n-butyl-7-(2-hydroxypropyl) xanthine]
Mongolian gerbils
  Percentage of animals with recall latencies >60s: 32*
[1]; 5.0 mg/kg i.v., n 4
  CHANGE in pO2 (Torr) (mean ± SEM): 2.3 ± 1.6 Torr
[2]
  Ki: 128 µM

## CCCCn1c(=O)c2c(ncn2CC(C)O)n(CCC(C)O)c1=O (centres unmarked) [Example E6, 1-n-Butyl-3-(3-hydroxybutyl)-7-(2-hydroxypropyl)xanthine]
Mongolian gerbils
  Percentage of animals with recall latencies >60s: 33*
[1]; 1.0 mg/kg i.v., n 8
  CHANGE in pO2 (Torr) (mean ± SEM): 2.2 ± 0.6 Torr
[2]
  Ki: 94 µM

## CCCCn1c(=O)n(CCC(C)O)c(=O)c2c1ncn2CC(C)=O (centres unmarked) [Example E7, 1-(3-Hydroxybutyl)-3-n-butyl-7-(2-oxopropyl)xanthine]
[2]
  Ki: 13 µM

## CCCCn1c(=O)n(CCC(C)=O)c(=O)c2c1ncn2CC(C)O (centres unmarked) [Example E8, 1-(3-Oxobutyl)-3-n-butyl-7-(2-hydroxypropyl) xanthine]
[2]
  Ki: 160 µM

## CCCCn1c(=O)c2c(ncn2CC(C)=O)n(CCC(C)O)c1=O (centres unmarked) [Example E9, 1-n-Butyl-3-(3-hydroxybutyl)-7-(2-oxopropyl)xanthine]
[2]
  Ki: 13 µM

## CC(=O)Cn1cnc2c1c(=O)n(CCC(C)O)c(=O)n2CCC(C)O (centres unmarked) [Example E11, 1,3-bis-(3-Hydroxybutyl)-7-(2-oxopropyl)xanthine]
[2]
  Ki: 81 µM

## CC(O)CCn1c(=O)c2c(ncn2CC(C)O)n(CCC(C)O)c1=O (centres unmarked) [Example E14, 1,3-bis-(3-Hydroxybutyl)-7-(2-hydroxypropyl)xanthine]
[2]
  Ki: 815 µM
